# Assays:
# ABT-737 = compound: CN(C)CC[C@H](CSc1ccccc1)Nc1ccc(S(=O)(=O)NC(=O)c2ccc(N3CCN(Cc4ccccc4-c4ccc(Cl)cc4)CC3)cc2)cc1[N+](=O)[O-] [ABT-737]
# Saracatinib/AZD0530 = compound: CN1CCN(CCOc2cc(OC3CCOCC3)c3c(Nc4c(Cl)ccc5c4OCO5)ncnc3c2)CC1 [Saracatinib/AZD0530]
# Flavopiridol [1] = compound: T1, CN1CC[C@H](c2c(O)cc(O)c3c(=O)cc(-c4ccccc4Cl)oc23)[C@H](O)C1 [Flavopiridol]
# Taselisib/GDC0032 = compound: Cc1nc(-c2cn3c(n2)-c2ccc(-c4cnn(C(C)(C)C(N)=O)c4)cc2OCC3)n(C(C)C)n1 [Taselisib/GDC0032]
# [2] = compound: CO[C@@H](C)Cn1c(=O)n(C)c2cnc3ccc(-c4cncc(C(C)(C)O)c4)cc3c21
# BSJ-03-123 = compound: CC(=O)c1c(C)c2cnc(Nc3ccc(N4CCN(CCOCCOCCOCCNC(=O)COc5cccc6c5C(=O)N(C5CCC(=O)NC5=O)C6=O)CC4)cn3)nc2n(C2CCCC2)c1=O [BSJ-03-123]; assay: GR value, 72 h; higher = faster growth (1 = untreated, <0 = killing);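 further: breast cancer and non-malignant breast epithelial lines, nine half-log doses, viable cells counted by Hoechst and LIVE/DEAD dye imaging versus time-zero plates and DMSO controls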
# [3] = compound: CC(=O)c1c(C)c2cnc(Nc3ccc(N4CCNCC4)cn3)nc2n(C2CCCC2)c1=O; assay: as above
# [4] = compound: CCc1cnn2c(NCc3ccc[n+]([O-])c3)cc(N3CCCC[C@H]3CCO)nc12; assay: as above
# [5] = compound: CCN1CCN(Cc2ccc(Nc3ncc(F)c(-c4cc(F)c5nc(C)n(C(C)C)c5c4)n3)nc2)CC1; assay: as above
# Flavopiridol [6] = compound: T1, Flavopiridol; assay: as above
# THZ1 = compound: CN(C)C/C=C/C(=O)Nc1ccc(C(=O)Nc2cccc(Nc3ncc(Cl)c(-c4c[nH]c5ccccc45)n3)c2)cc1 [THZ1]; assay: as above
# Neratinib/HKI272 = compound: CCOc1cc2ncc(C#N)c(Nc3ccc(OCc4ccccn4)c(Cl)c3)c2cc1NC(=O)/C=C/CN(C)C [Neratinib/HKI272]; assay: as above
# YKL-5-124 = compound: C=CC(=O)Nc1ccc(C(=O)Nc2[nH]nc3c2CN(C(=O)N[C@H](CN(C)C)c2ccccc2)C3(C)C)cc1 [YKL-5-124]; assay: as above
# LEE011/Ribociclib = compound: CN(C)C(=O)c1cc2cnc(Nc3ccc(N4CCNCC4)cn3)nc2n1C1CCCC1 [LEE011/Ribociclib]; assay: as above
# THZ531 = compound: CN(C)C/C=C/C(=O)Nc1ccc(C(=O)N2CCC[C@@H](Nc3ncc(Cl)c(-c4c[nH]c5ccccc45)n3)C2)cc1 [THZ531]; assay: as above
# 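Wherever GR50, 72 h is given: breast cancer and non-malignant breast epithelial cell lines, Deep Dye Drop or Dye Drop imaging, nine half-log doses, GR normalized to time-zero plates and DMSO-only controls.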
cell line,measurement,setting,value
UACC893,"GR50, 72 h",ABT-737,9.97 µM
same,"GR50, 72 h",Saracatinib/AZD0530,4.54 µM
same,"GR50, 72 h",Flavopiridol [1],0.117 µM
same,"GR50, 72 h",Taselisib/GDC0032,0.00346 µM
same,"GR50, 72 h",[2],0.00107 µM
same,GR value,BSJ-03-123; 0.001 µM,0.933 GR
same,GR value,BSJ-03-123; 0.003162 µM,0.792 GR
same,GR value,BSJ-03-123; 0.01 µM,0.726 GR
same,GR value,BSJ-03-123; 0.03162 µM,0.878 GR
same,GR value,BSJ-03-123; 0.1 µM,0.644 GR
same,GR value,BSJ-03-123; 0.3162 µM,0.502 GR
same,GR value,BSJ-03-123; 1 µM,0.538 GR
same,GR value,BSJ-03-123; 3.162 µM,0.498 GR
same,GR value,BSJ-03-123; 10 µM,0.283 GR
same,GR value,[3]; 0.0003162 µM,0.92 GR
same,GR value,[3]; 0.001 µM,0.914 GR
same,GR value,[3]; 0.003162 µM,0.79 GR
same,GR value,[3]; 0.01 µM,0.671 GR
same,GR value,[3]; 0.03162 µM,0.422 GR
same,GR value,[3]; 0.1 µM,0.406 GR
same,GR value,[3]; 0.3162 µM,0.366 GR
same,GR value,[3]; 1 µM,0.358 GR
same,GR value,[3]; 3.162 µM,0.355 GR
same,GR value,[4]; 0.0001 µM,0.963 GR
same,GR value,[4]; 0.0003162 µM,0.894 GR
same,GR value,[4]; 0.001 µM,1 GR
same,GR value,[4]; 0.003162 µM,0.997 GR
same,GR value,[4]; 0.01 µM,0.865 GR
same,GR value,[4]; 0.03162 µM,-0.169 GR
same,GR value,[4]; 0.1 µM,-0.503 GR
same,GR value,[4]; 0.3162 µM,-0.612 GR
same,GR value,[4]; 1 µM,-0.649 GR
same,GR value,[5]; 0.001 µM,0.682 GR
same,GR value,[5]; 0.003162 µM,0.508 GR
same,GR value,[5]; 0.01 µM,0.42 GR
same,GR value,[5]; 0.03162 µM,0.344 GR
same,GR value,[5]; 0.1 µM,0.305 GR
same,GR value,[5]; 0.3162 µM,0.272 GR
same,GR value,[5]; 1 µM,0.262 GR
same,GR value,[5]; 3.162 µM,0.241 GR
same,GR value,[5]; 10 µM,-0.088 GR
same,GR value,Flavopiridol [6]; 0.0001 µM,1.02 GR
same,GR value,Flavopiridol [6]; 0.0003162 µM,0.977 GR
same,GR value,Flavopiridol [6]; 0.001 µM,0.945 GR
same,GR value,Flavopiridol [6]; 0.003162 µM,0.821 GR
same,GR value,Flavopiridol [6]; 0.01 µM,0.866 GR
same,GR value,Flavopiridol [6]; 0.03162 µM,0.822 GR
same,GR value,Flavopiridol [6]; 0.1 µM,0.609 GR
same,GR value,Flavopiridol [6]; 0.3162 µM,0.0303 GR
same,GR value,Flavopiridol [6]; 1 µM,-0.465 GR
same,GR value,THZ1; 0.0001 µM,0.991 GR
same,GR value,THZ1; 0.0003162 µM,1.12 GR
same,GR value,THZ1; 0.001 µM,1.07 GR
same,GR value,THZ1; 0.003162 µM,0.882 GR
same,GR value,THZ1; 0.01 µM,0.669 GR
same,GR value,THZ1; 0.03162 µM,0.149 GR
same,GR value,THZ1; 0.1 µM,-0.241 GR
same,GR value,THZ1; 0.3162 µM,-0.397 GR
same,GR value,THZ1; 1 µM,-0.517 GR
same,GR value,Neratinib/HKI272; 0.0003162 µM,1.06 GR
same,GR value,Neratinib/HKI272; 0.001 µM,0.922 GR
same,GR value,Neratinib/HKI272; 0.003162 µM,0.372 GR
same,GR value,Neratinib/HKI272; 0.01 µM,-0.192 GR
same,GR value,Neratinib/HKI272; 0.03162 µM,-0.409 GR
same,GR value,Neratinib/HKI272; 0.1 µM,-0.604 GR
same,GR value,Neratinib/HKI272; 0.3162 µM,-0.688 GR
same,GR value,Neratinib/HKI272; 1 µM,-0.784 GR
same,GR value,Neratinib/HKI272; 3.162 µM,-0.908 GR
same,GR value,YKL-5-124; 0.001 µM,0.472 GR
same,GR value,YKL-5-124; 0.003162 µM,0.473 GR
same,GR value,YKL-5-124; 0.01 µM,0.363 GR
same,GR value,YKL-5-124; 0.03162 µM,0.342 GR
same,GR value,YKL-5-124; 0.1 µM,0.215 GR
same,GR value,YKL-5-124; 0.3162 µM,0.246 GR
same,GR value,YKL-5-124; 1 µM,0.219 GR
same,GR value,YKL-5-124; 3.162 µM,0.119 GR
same,GR value,YKL-5-124; 10 µM,-0.629 GR
same,GR value,LEE011/Ribociclib; 0.001 µM,0.564 GR
same,GR value,LEE011/Ribociclib; 0.003162 µM,0.501 GR
same,GR value,LEE011/Ribociclib; 0.01 µM,0.497 GR
same,GR value,LEE011/Ribociclib; 0.03162 µM,0.461 GR
same,GR value,LEE011/Ribociclib; 0.1 µM,0.494 GR
same,GR value,LEE011/Ribociclib; 0.3162 µM,0.422 GR
same,GR value,LEE011/Ribociclib; 1 µM,0.473 GR
same,GR value,LEE011/Ribociclib; 3.162 µM,0.48 GR
same,GR value,LEE011/Ribociclib; 10 µM,0.484 GR
same,GR value,THZ531; 0.0001 µM,1.05 GR
same,GR value,THZ531; 0.0003162 µM,1.05 GR
same,GR value,THZ531; 0.001 µM,0.907 GR
same,GR value,THZ531; 0.003162 µM,1.06 GR
same,GR value,THZ531; 0.01 µM,1.08 GR
same,GR value,THZ531; 0.03162 µM,0.743 GR
same,GR value,THZ531; 0.1 µM,-0.298 GR
same,GR value,THZ531; 0.3162 µM,-0.396 GR
same,GR value,THZ531; 1 µM,-0.421 GR

# — the supplement of paper PMC9663587
